Test results from patent CN109134566A, “一种1/20水利巴韦林化合物” (Individual, priority 2017, dated 2019).

Key:
Format in all cases: physicochemical
[1] = Accelerated stability test of the bulk compound (试验例1 稳定性考察); settings: 40℃±2℃, 6 months, sampled at 0, 1, 2, 3, 6 months
[2] = Freeze-drying test, water before and after (试验例2 冷冻干燥试验); settings: 0.25 g/vial, vacuum, -40℃, 24 h
[3] = Accelerated stability of compressed tablets (试验例3 压片稳定性); settings: round tablets 0.5 g/tablet, 40℃±2℃, 6 months, sampled at 0, 1, 2, 3, 6 months

In the case of `NC(=O)c1ncn([C@@H]2O[C@H](CO)[C@@H](O)[C@H]2O)n1` [实施例1, 1/20水利巴韦林化合物], the “change in water content (accelerated test)” value ([1]; 1/20水) is reported as “未发生明显变化”, the “change in water content after freeze-drying” value ([2]; 1/20水) is reported as “未发生明显变化” and the “change in water content of compressed tablets (accelerated test)” value ([3]; 1/20水) is reported as “未发生明显变化”.

For `NC(=O)c1ncn([C@@H]2O[C@H](CO)[C@@H](O)[C@H]2O)n1` [对比例1, 利巴韦林], the “change in water content (accelerated test)” value [1] was “明显降低”, the “change in water content after freeze-drying” value [2] was “明显降低” and the “change in water content of compressed tablets (accelerated test)” value [3] was “明显降低”.
